pIC50: −log10 of the molar value.
Biological target: C-C chemokine receptor type 2 (Homo sapiens, UniProt P41597)
Assay: Antagonist activity at CCR2 (unknown origin)

Sequence of C-C chemokine receptor type 2 (P41597 whole entry): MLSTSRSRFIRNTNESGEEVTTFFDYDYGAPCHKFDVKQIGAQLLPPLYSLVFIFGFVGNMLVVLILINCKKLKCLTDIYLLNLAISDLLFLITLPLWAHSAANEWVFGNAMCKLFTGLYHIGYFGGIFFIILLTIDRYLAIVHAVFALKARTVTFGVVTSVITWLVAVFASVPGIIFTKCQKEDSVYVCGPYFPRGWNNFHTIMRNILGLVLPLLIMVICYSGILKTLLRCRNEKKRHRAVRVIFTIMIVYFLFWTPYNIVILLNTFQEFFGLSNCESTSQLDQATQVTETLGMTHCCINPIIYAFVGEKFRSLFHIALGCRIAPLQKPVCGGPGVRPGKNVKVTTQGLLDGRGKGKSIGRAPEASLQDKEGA

| pIC50 | Structure (SMILES) |
| --- | --- |
| 7.55 | CC(C)[C@]1(C(=O)NCc2cc(C(F)(F)F)cc(C(F)(F)F)c2)CC[C@@H](NC2CCOCC2(C)C)C1 (stereo partly specified) |
| 7.29 | CC(C)[C@]1(C(=O)NCc2cc(C(F)(F)F)cc(C(F)(F)F)c2)CC[C@@H](NC2CCOCC2F)C1 (stereo partly specified) |
| 8.22 | CC(C)[C@]1(C(=O)NCc2cc(C(F)(F)F)cc(C(F)(F)F)c2)CC[C@@H](NC2CCOCC2C(F)(F)F)C1 (stereo partly specified) |
| 6.62 | CC1COCCC1N[C@@H]1CC[C@@](C(=O)NCc2cc(C(F)(F)F)cc(C(F)(F)F)c2)(C(C)C)C1 (stereo partly specified) |
| 8.52 | CCCC1COCCC1N[C@@H]1CC[C@@](C(=O)NCc2cc(C(F)(F)F)cc(C(F)(F)F)c2)(C(C)C)C1 (stereo partly specified) |
| 8.11 | CC(C)[C@]1(C(=O)NCc2cc(C(F)(F)F)cc(C(F)(F)F)c2)CC[C@@H](NC2CCOCC2C2CC2)C1 (stereo partly specified) |
| 6.91 | CC(C)[C@]1(C(=O)NCc2cc(C(F)(F)F)cc(C(F)(F)F)c2)CC[C@@H](NC2CCOCC2O)C1 (stereo partly specified) |
| 8.34 | CC(C)[C@]1(C(=O)NCc2cc(C(F)(F)F)cc(C(F)(F)F)c2)CC[C@@H](NC2CCCOC2)C1 (stereo partly specified) |
| 6.12 | CC1CC(N[C@@H]2CC[C@@](C(=O)NCc3cc(C(F)(F)F)cc(C(F)(F)F)c3)(C(C)C)C2)CCO1 (stereo partly specified) |
| 6.64 | CC1COCC(C)C1N[C@@H]1CC[C@@](C(=O)NCc2cc(C(F)(F)F)cc(C(F)(F)F)c2)(C(C)C)C1 (stereo partly specified) |
| 7.66 | CC(C)[C@]1(C(=O)NCc2cc(C(F)(F)F)cc(C(F)(F)F)c2)CC[C@@H](NC2CCSC2)C1 (stereo partly specified) |
| 7.25 | CC(C)[C@]1(C(=O)NCc2cc(C(F)(F)F)cc(C(F)(F)F)c2)CC[C@@H](NC2CCOCC2)C1 |
| 7.44 | CC(C)[C@]1(C(=O)NCc2cc(C(F)(F)F)cc(C(F)(F)F)c2)CC[C@@H](NC2CCSCC2)C1 |
| 8.82 | CCC1COCCC1N[C@@H]1CC[C@@](C(=O)NCc2cc(C(F)(F)F)cc(C(F)(F)F)c2)(C(C)C)C1 (stereo partly specified) |
| 8.26 | CC(C)[C@]1(C(=O)NCc2cc(C(F)(F)F)cc(C(F)(F)F)c2)CC[C@@H](NC2CCOCC2(O)C(F)(F)F)C1 (stereo partly specified) |
| 6.73 | CC(C)[C@]1(C(=O)NCc2cc(C(F)(F)F)cc(C(F)(F)F)c2)CC[C@@H](NC2CCc3ccccc3C2)C1 (stereo partly specified) |

From ChEMBL document CHEMBL3046549, “Comparative quantitative structureactivity relationship study of some 1-aminocyclopentyl-3-carboxyamides as CCR2 inhibitors using stepwise MLR, FA-MLR, and GA-PLS” (Med Chem Res, 2012)
